# Experiments:
# [1] = tested on: Escherichia coli ATCC 25922; assay: in vitro bacteria attachment assay on coated surgical mesh discs in SST medium; format: cell-based; conditions: serum containing media
# Method: (§1) Taurolidine was dissolved at 4% wt./vol. in a 70% acetone 30% water vol./vol. mixture. Protamine sulfate was dissolved at 10% wt./vol. in water under warming. 50 μl of the taurolidine (TU) solution and 20 μl of the protamine (PS) solution were applied to each mesh disk using a pipette and allowed to dry at 50° C. until the majority of the liquid was gone and then stored under vacuum. First the taurolidine solution was applied, and then immediately thereafter the protamine sulfate solution was applied. The in vitro bacteria attachment assay was developed for its utility of indicating biofilm prevention potential of prototype mesh. Since bacterial attachment to a surface is the first step of biofilm formation, a surface treatment that inhibits bacterial attachment would reduce the chance of subsequent biofilm formation. The assay was conducted in SST (Serum Saline TSB) medium to mimic in vivo and clinical conditions. The formulation of SST is Tryptic Soy Broth (TSB):serum:saline in the ratio of 1:2:7. Each test article was incubated in SST inoculated with Staphylococcus aureus ACTT 6538 or Escherichia coli ATCC 25922 at about 6 Log CFU/ml. […] Viable bacteria populations were measured by plate count on TSA (Tryptic Soy agar) medium contain neutralizing agents. […]
# [2] = tested on: Staphylococcus aureus ACTT 6538; assay: as above; format: cell-based; conditions: serum containing media
# Method: as §1
# [3] = cited from earlier work
structure (smiles),measurement,setting,value
"O=S1(=O)CCN(CN2CCS(=O)(=O)NC2)CN1 [TU, bis(1,1-dioxoperhydro-1,2,4-thiadiazinyl-4)-methane]",inhibition of attachment by E. coli to treated mesh surface,[1],less inhibition than the combination
same,inhibition of attachment by S. aureus to treated mesh surface,[2],less inhibition than the combination
same,cumulative dose shown to be safe and well tolerated,[3]; cumulative doses,exceeding 300 g
same,systemic dose shown to be safe and well tolerated,[3]; systemic doses,exceeding 40 g/day

# — patent US20130084319A1, “BROAD-SPECTRUM ANTIMICROBIAL COMPOSITIONS BASED ON COMBINATIONS OF TAUROLIDINE AND PROTAMINE AND MEDICAL DEVICES CONTAINING SUCH COMPOSITIONS” (priority 2011, published 2013)
